# Reference: patent US20100034739A1, “Fungus-Specific Imaging Agents” (priority 2006, published 2010)
# Positions of bridges follow the written chain, without caps; N, C: chain ends. No end group written: not given here. *: point of attachment. DOTA = O=C(O)CN1CCN(CC(=O)O)CCN(CC(=O)*)CCN(CC(=O)O)CC1
# What was measured:
# [1] = tested on: acute pulmonary aspergillosis; assay: μ-PET imaging of mice with acute pulmonary aspergillosis and normal mice; format: in vivo; conditions: μ-PET at 30 and 90 minutes, i.v. approx. 200 μCi per mouse, not seen in normal mice
# Procedure: FIG. 5A illustrates μ-PET images of mice injected with the ^68Ga-labeled peptide of FIG. 4. […] Arrows indicate accumulated imaging agent.
# Mice weighing approximately 20 g each were injected intravenously with the imaging agent of FIG. 4 to provide radioisotope at a level of approximately 200 μCi per mouse. μ-PET imaging was performed at 30 and 90 minutes after injection. Control mice had no fungal infection, while infected mice had acute pulmonary aspergillosis. μ-PET images of normal and infected mice are shown in FIG. 5A. Arrows in FIG. 5A indicate the accumulated radiotracer.
# [2] = tested on: Aspergillus; assay: autoradiography and GMS histology of excised lung slices; format: in vivo, mice
# Procedure: FIG. 5B illustrates autoradiography of the lungs of mice injected with the ^68Ga-labeled peptide of FIG. 4.
# FIG. 6 illustrates histology and autoradiography of excised lung tissue from a mouse injected with Ga-68-labeled peptide of FIG. 4. The mouse had acute pulmonary aspergillosis.
# Lungs were removed from the mice after the 90 minute imaging session and snap frozen, then cut into 20 μm slices. These slices were air-dried and exposed to a phosphors screen. The screen was exposed for 10 minutes.
# To confirm that tissue labeled with the imaging agent was actually infected with Aspergillus, histology of lung tissue labeled by the imaging agent in an infected mouse was performed. The corresponding gamma scintogram and histology data are show in FIG. 6. […] Note the black-stained organisms correlated with distribution of radioactivity in autoradiography (lower left image) of excised lung tissue from a mouse injected with Ga-68-labeled peptide of FIG. 4.
# [3] = tested on: acute pulmonary aspergillosis; conditions: i.v. approx. 80 μCi per mouse
# Procedure: FIG. 2 illustrates gamma scintography of mice injected with the ^111In-labeled peptide of FIG. 1. […] Arrows indicate radiotracer in the lung.
# Gamma scintography was performed at 30 and 120 minutes after injection. […] Experiments were performed 1 to 2 days after infection. The same mouse is shown for each test type at 30 and 120 minutes. Arrows in FIG. 2 indicate the accumulated radiotracer. Radiotracer accumulation in the lungs of the control mouse was not visible at 120 minutes after injection. Increased radiotracer could be seen as little as 5 minutes after injection.
# [4] = tested on: hyphae of Rhizopus; conditions: Lionakis et al. 2005; cited from earlier work
# [5] = tested on: hyphae of Aspergillus; conditions: Lionakis et al. 2005; cited from earlier work
substance,measurement,setting,value
"^68Ga-DOTA-CGGRLGPFC ({DOTA}-CGGRLGPFC; not fully specified (bridges); also: 68Ga chelated by DOTA, cyclic, type of ring bond not given here) [imaging agent of FIG. 4]",radiotracer accumulation in the lungs of infected mice,[1],can be clearly seen
same,radioactivity in lung slices of the infected mouse,"[2]; autoradiography of 20 μm slices, lungs removed after the 90 minute imaging session, infected mouse",Heterogeneous distribution of radioactivity
same,radioactivity in lung slices of the normal mouse,"[2]; autoradiography of 20 μm slices, lungs removed after the 90 minute imaging session, normal mouse",Little radioactivity
same,relation of GMS-stained Aspergillus organisms to distribution of radioactivity in autoradiography,"[2]; excised lung tissue of an infected mouse, FIG. 6",correlated
^111In-DTPA-Benzyl-NH-Succinic Acid-CGGRLGPFC [imaging agent of FIG. 1],radiotracer accumulation in the lungs of the control mouse,"[3]; control mouse without fungal infection, 120 minutes after injection",not visible
same,time after injection at which increased radiotracer could be seen,[3]; gamma scintography,5 min
c(CGGRLGPFC) (disulfide 1-9 (inferred)),binding in vitro to the hyphae of Rhizopus,[4],bind in vitro
same,binding in vitro to the hyphae of Aspergillus,[5],bind in vitro
c(CWGHSRDEC) (disulfide 1-9 (inferred)),binding in vitro to the hyphae of Rhizopus,[4],bind in vitro
same,binding in vitro to the hyphae of Aspergillus,[5],bind in vitro
